The values below are quoted from earlier work in US5196437A, “Method for treating hepatic diseases and regenerating liver tissue using FK 506 and related compounds” (Fujisawa Pharmaceutical Company, Ltd., priority 1990, dated 1993).

One series concerns liver tissue. The conditions noted are these: literature; cited from earlier work.
The next series relates to liver. As to conditions: literature (Starzl et al); cited from earlier work.

`Cn1cnc([N+](=O)[O-])c1Sc1ncnc2nc[nH]c12` [Azathioprine]: the “regeneration of liver tissue after partial hepatectomy” value with liver tissue is recorded as “depress the regeneration of liver tissue”.

Turning to glucagon, in the series with liver, the hepatotrophic properties entry was “does not have the hepatotrophic properties” and the “metabolic effect on the liver” value is reported as “powerful metabolic effect on the liver”.

insulin: the hepatotrophic properties entry in the series with liver was “exhibit hepatotrophic effects similar to those of the present compounds”.
